This is an account of results in patent US9539323B2, “Methods and compositions for malic enzyme 2 (ME2) as a target for cancer therapy” (Beth Israel Deaconess Medical Center, Inc., priority 2010, dated 2017).

Type in all cases: cell-based, human
For test [1], the system named is K562 cells. Kind of test: Erythroid differentiation assay (glycophorin A, CD10, benzidine hemoglobin staining). To be noted: for rescue of differentiation mediated by ME2 depletion: supplementation. The protocol:
Erythroid differentiation assay: Induction of surface expression of the erythroid marker glycophorin A and CD10 was determined by indirect immunofluorescence and flow cytometry, as described previously by Hatzivassiliou et al., in Cancer Cell. 8: 311-321 (2005). In brief, K562 cells with or without ME2 knockdown were stained with a mouse FITC-conjugated anti-glycophorin A or CD10 antibody (Dako) at 1:100 dilution in medium plus 10% FCS for 30 min at 4° C. Control cells were stained with FITC-conjugated IgG. Cells expressing hemoglobin were determined by benzidine staining, as previously described by Park et al., in Cell Growth Differ. 12: 481-486 (2001). The benzidine dihydrochloride stock solution contained 0.2% w/v benzidine hydrochloride in 3% acetic acid. Cells (1×10^5) were washed twice in ice-cold PBS. The cell pellets were resuspended in ice-clod PBS. Before staining, 5 μl of 30% H2O2 was added to 1 ml of a stock solution of benzidine solution. The cell suspensions were mixed with the benzidine solution in a 1:1 ratio and counted in a hemocytometer after 30 min. Blue cells were considered to be positive for hemoglobin. The proportion of blue-stained cells was quantified under light microscopy. A total of 500 cells were counted for each sample in triplicate. Shown is the mean±SD of a representative experiment.

For test [2], the system named is K562 cells. Kind of test: Cell death assessed by flow cytometry. To be noted: 72 h. The protocol:
A: Cells were treated with different concentrations of amino-oxyacetate and expression levels of the erythroid marker glycophorin A (GPA) on the surface of K562 cells were assessed using a mouse FITC-conjugated anti-human glycophorin A antibody. Each histogram is representative of three experiments. B: K562 cells with or without ME2 knockdown were incubated with different concentrations of AOA for 72 h. Cell death was assessed by flow cytometry. Top: pLKO; Bottom: shME2-3. […] C: Cells were treated with different concentrations of malate and expression levels of the erythroid marker glycophorin A on the surface of K562 cells were assessed using a mouse FITC-conjugated anti-human glycophorin A antibody. Each histogram is representative of three experiments.
K562 cells with or without ME2 knockdown were incubated with 0.1 mM AOA plus 2 mM α-KG for 48 h. Cell death was assessed by flow cytometry. A: pLKO K562 cells without any treatment. B: pLKO K562 cells treated with 0.1 mM AOA for 48 h. C: pLKO K562 cells treated with 0.1 mM AOA combined with 2 mM α-KG.
In general terms: Flow cytometry measures light scatter and fluorescence of single cells or particles in a stream.

Test [3] relates to K562 cells. Kind of test: Proliferation assay (Coulter counter). To be noted: for rescue of ME2 knockdown cell cycle phenotype (decreased proliferation): supplementation.
Method: Proliferation assay: Control and ME2 deficient cell lines were plated in 6-well plate at a density of 1×10^5 cells/well and maintained at 37° C. in a 5% CO2 incubator. After 24, 72, 120 and 168 hours of initial plating, 0.5 ml cells were diluted into 10 ml of Hanks' buffer and counted by Coulter counter.
Test [4] deals with phospho-ERK1/2, phospho-AKT, GATA-1, vimentin. Kind of test: Western blot of signaling pathways, GATA-1 and vimentin in K562 cells. As to conditions: K562, 10 μM. Here is the method:
K562 cells with or without ME2 knockdown were lysed with RIPA lysis buffer (50 mM Tris-HCl, pH 8.0, 150 mM NaCl, 1% Triton X-100, 1 mM EGTA) containing 1 mM PMSF and a protease inhibitor cocktail and subjected to centrifugation at 15,000×g for […] at 4° C. to remove debris. After lysis, equal aliquots of protein lysate were resolved by Western blotting. Western blots were probed with anti-phospho-ERK1/2, anti-ERK1, anti-p-AKT308, anti-AKT472, anti-AKT1/2, anti-GATA-1, anti-vimentin, and anti-β-tubulin. A: Phospho-ERK1/2 activity in ME2 knockdown K562 cells. B: Phospho-AKT detection in ME2 knockdown K562 cells. C: 10 μM PI3K inhibitor, LY294002, inhibits p-AKT activity. D: LY294002 rescue of differentiation in ME2 knockdown K562 cells. E: The effect of LY294002 on the proliferation of K562 cells with (third to sixth bars in graph) or without ME2 (first to second bars in graph) knockdown. F: The expression difference of GATA-1 and vimentin in ME2 knockdown cells. Data are representative of three independent experiments. […] Membranes were washed in PBS plus 0.1% Tween 20 and probed with anti-rabbit or anti-mouse HRP-conjugated secondary antibody (both at 1:10,000 dilution), and proteins were detected using the ECL Plus chemiluminescence detection reagent (Amersham Biosciences).
On the technique in general: A western blot detects proteins with antibodies after separation by electrophoresis.

In test [5] the test system is K562 cells. Kind of test: Determination of cellular reactive oxygen species (CM-H2DCF-DA, MitoSOX). As to conditions: ME2 knockdown K562 cells, 5.0 mM. Here is the method:
Determination of cellular reactive oxygen species (ROS): Intracellular ROS production was measured by staining with CM-H2DCFDA. CM-H2DCFDA is a cell-permeant indicator for ROS that is nonfluorescent until removal of the acetate groups by intracellular esterases and oxidation occurs within the cell. The procedure for measuring ROS was carried out as described in Trachootham et al., in Cancer Cell. 10: 241-252 (2006), with minor modifications. Briefly, K562 cells transduced with shRNA lentiviral particles or control vector were selected with puromycin for 2 weeks, […], followed by flow cytometry using a FACSCalibur equipped with CellQuest Pro software. Superoxide radicals (O2^−) were measured separately using the MitoSOX™ reagent according to the manufacturer's protocol (Invitrogen). In brief, cells with or without ME2 knockdown were incubated with 5 μM MitoSOX™ reagent for 10 minutes at 37° C., then washed three times and observed under a fluorescence microscope using the Rhodamine filter and Axiovision software for capturing images (Zeiss, Germany).

With `NOCC(=O)O` [AOA, amino-oxyacetate], the “erythroid differentiation (glycophorin staining)” value in the test with K562 cells [1] (K562, 0.2 to 0.8 mM in medium) is on record as “could not induce erythroid differentiation”. Further, the figures for the cell death result with K562 cells [2] (K562 with ME2 silenced (shME2-3)) and in the test with K562 cells [2] (wild type K562 (pLKO)) were “induced leukemia cell death (mainly apoptotic)” and “induced leukemia cell death (mainly necrotic)”, respectively.

On to `O=c1cc(N2CCOCC2)oc2c(-c3ccccc3)cccc12` [LY294002, 2-morpholin-4-yl-8-phenylchromen-4-one], for which the “differentiation mediated by ME2 silencing” value in the test on K562 cells [1] (ME2 knockdown K562 cells, 10 μM) is given as “rescues the differentiation”. Also, the “rescue of proliferation inhibition” value in the test with K562 cells [3] (ME2 knockdown K562 cells) was “does not rescue proliferation inhibition in ME2 knockdown cells as effectively”. The “sensitivity of proliferation inhibition to LY294002” value in the test with K562 cells [3] (ME2 knockdown vs parental K562 cells) is “more sensitive”. Further, in test [4], the p-AKT activity result is given as “significantly inhibit p-AKT activity”.

On to `CC(=O)N[C@@H](CS)C(=O)O` [NAC, N-acetyl cysteine], for which the “differentiation induced by ME2 depletion” value in the test with K562 cells [1] (ME2 knockdown K562 cells, 5.0 mM) is on record as “without affecting differentiation”. The “endogenous ROS” value in the test with K562 cells [5] is on record as “completely inhibited”.

`Nc1ccn([C@@H]2O[C@H](CO)[C@@H](O)[C@H]2O)c(=O)n1` [cytidine]: the “rescue of differentiation mediated by ME2 depletion” value with K562 cells [1] (ME2 knockdown K562 cells) was “could not rescue the differentiation”. Besides, the “rescue of ME2 knockdown cell cycle phenotype (decreased proliferation)” value in the test with K562 cells [3] (ME2 knockdown K562 cells) is reported as “nor were we able to rescue”.

With `O=C(O)CC(O)C(=O)O` (centres unmarked) [malate], the erythroid differentiation result with K562 cells [1] (wild type K562, 0.1 to 10 mM in medium) is “could not induce erythroid differentiation”.

Regarding `O=c1ccn([C@@H]2O[C@H](CO)[C@@H](O)[C@H]2O)c(=O)[nH]1` [uridine], in the test with K562 cells [1] (ME2 knockdown K562 cells), the “rescue of differentiation mediated by ME2 depletion” value is “could not rescue the differentiation”. The “rescue of ME2 knockdown cell cycle phenotype (decreased proliferation)” value in the test with K562 cells [3] (ME2 knockdown K562 cells) was “nor were we able to rescue”.
